ChEMBL document CHEMBL4184140, “Expanding the tetrahydroquinoline pharmacophore” (Bioorg Med Chem Lett, 2017)
The source made the active and inactive calls. The rule behind the calls is not given here.

Key:
MCF7 = test: Antiproliferative activity against human MCF7 cells; type: functional, cell-based
A549 = test: Antiproliferative activity against human A549 cells; type: functional, cell-based
IMR-32 [1] = test: Neurotrophic activity in human IMR32 cells assessed as appearance of neurites at 1 to 10 uM after 96 hrs by bright field microscopic analysis; type: functional, cell-based
HepG2 = test: Antiproliferative activity against human HepG2 cells; type: functional, cell-based
IMR-32 [2] = test: Cytotoxicity against human IMR32 cells after 48 hrs by SRB assay; type: cell-based; details: IMR-32, 48 h
DU-145 = test: Antiproliferative activity against human DU145 cells; type: functional, cell-based
IMR-32 [3] = test: Neurotrophic activity in human IMR32 cells assessed as induction of differentiation at 10 uM after 96 hrs by bright filed microscopic method; type: functional, cell-based
IMR-32 [4] = test: Neurotrophic activity in human IMR32 cells assessed as increase in BDNF protein level at 10 uM by Western blot method; type: functional, cell-based
IMR-32 [5] = test: Neurotrophic activity in human IMR32 cells assessed as increase in NGF mRNA level at 10 uM by RT-PCR analysis; type: functional, cell-based
IMR-32 [6] = test: Neurotrophic activity in human IMR32 cells assessed as increase in BDNF mRNA level at 10 uM by RT-PCR analysis; type: functional, cell-based
IMR-32 [7] = test: Neurotrophic activity in human IMR32 cells assessed as increase in NGF protein level at 10 uM by Western blot method; type: functional, cell-based
IMR-32 [8] = test: Neurotrophic activity in human IMR32 cells assessed as length of neurite outgrown after 96 hrs by bright field microscopic analysis; type: functional, cell-based

CC(=O)N1c2ccc(Br)cc2[C@H]2C=CC[C@H]2[C@H]1c1ccccc1
Activity (MCF7): inactive | Activity (A549): inactive | Activity (IMR-32 [1]): inactive | Activity (HepG2): inactive | IC50 (IMR-32 [2]): 89.9 µM | Activity (DU-145): inactive

Brc1ccc2c(c1)[C@H]1C=CC[C@H]1[C@@H](c1ccccc1)N2
Activity (MCF7): inactive | Activity (A549): inactive | Activity (IMR-32 [1]): inactive | Activity (HepG2): inactive | IC50 (IMR-32 [2]): 94.4 µM | Activity (DU-145): inactive

Clc1ccc([C@H]2Nc3ccccc3[C@H]3C=CC[C@H]32)cc1
Activity (MCF7): inactive | Activity (A549): inactive | Activity (IMR-32 [1]): inactive | Activity (HepG2): inactive | IC50 (IMR-32 [2]): > 100 µM | Activity (DU-145): inactive

CC(=O)N1c2ccccc2[C@H]2[C@@H](O)[C@@H](O)C[C@H]2[C@H]1c1ccccc1
Activity (MCF7): inactive | Activity (A549): inactive | Activity (IMR-32 [1]): inactive | Activity (HepG2): inactive | IC50 (IMR-32 [2]): > 100 µM | Activity (DU-145): inactive

C=CCO[C@@H]1[C@@H]2c3ccccc3N(C(C)=O)[C@H](c3cccc(Br)c3)[C@@H]2C[C@H]1N=[N+]=[N-]
Activity (MCF7): inactive | Activity (A549): inactive | Activity (IMR-32 [1]): inactive | Activity (HepG2): inactive | IC50 (IMR-32 [2]): > 100 µM | Activity (DU-145): inactive

Brc1cccc([C@H]2Nc3ccccc3[C@H]3C=CC[C@H]32)c1
Activity (MCF7): inactive | Activity (A549): inactive | Activity (IMR-32 [1]): inactive | Activity (HepG2): inactive | IC50 (IMR-32 [2]): > 100 µM | Activity (DU-145): inactive

O[C@@H]1[C@@H]2c3ccc(F)cc3N[C@H](c3ccccc3)[C@@H]2C[C@@H]1O
Activity (MCF7): inactive | Activity (A549): inactive | Activity (IMR-32 [1]): inactive | Activity (HepG2): inactive | IC50 (IMR-32 [2]): > 100 µM | Activity (DU-145): inactive

CC(=O)N1c2ccccc2[C@H]2C=CC[C@H]2[C@H]1c1ccc(Cl)cc1
Activity (MCF7): inactive | Activity (A549): inactive | Activity (IMR-32 [1]): inactive | Activity (HepG2): inactive | IC50 (IMR-32 [2]): 94.7 µM | Activity (DU-145): inactive

CC(=O)N1c2ccccc2[C@H]2C=CC[C@H]2[C@H]1c1ccccc1
Activity (MCF7): inactive | Activity (A549): inactive | Activity (IMR-32 [1]): inactive | Activity (HepG2): inactive | IC50 (IMR-32 [2]): 61.6 µM | Activity (DU-145): inactive

O[C@@H]1[C@@H]2c3ccccc3N[C@H](c3ccccc3)[C@@H]2C[C@@H]1O
Activity (MCF7): inactive | Activity (A549): inactive | Activity (IMR-32 [1]): inactive | Activity (HepG2): inactive | IC50 (IMR-32 [2]): > 100 µM | Activity (DU-145): inactive

C=CCO[C@@H]1[C@@H]2c3ccccc3N(C(C)=O)[C@H](c3ccccc3)[C@@H]2C[C@H]1N=[N+]=[N-]
Activity (MCF7): inactive | Activity (A549): inactive | Activity (IMR-32 [1]): inactive | Activity (HepG2): inactive | IC50 (IMR-32 [2]): 17.4 µM | Activity (DU-145): inactive

CC(=O)N1c2cc([N+](=O)[O-])ccc2[C@@H]2[C@@H](C[C@@H]3O[C@H]23)[C@H]1c1ccccc1
Activity (MCF7): inactive | Activity (IMR-32 [3]): Active | Activity (A549): inactive | Activity (HepG2): inactive | IC50 (IMR-32 [2]): 56 µM | Activity (DU-145): inactive

CC(=O)N1c2cc([N+](=O)[O-])ccc2[C@H]2[C@@H](O)[C@H](N=[N+]=[N-])C[C@H]2[C@H]1c1ccccc1
Activity (MCF7): inactive | Activity (A549): inactive | Activity (IMR-32 [1]): inactive | Activity (HepG2): inactive | IC50 (IMR-32 [2]): > 100 µM | Activity (DU-145): inactive

CC(=O)N1c2ccccc2[C@H]2[C@@H](O)[C@H](N=[N+]=[N-])C[C@H]2[C@H]1c1ccccc1
Activity (IMR-32 [4]): Active | Activity (MCF7): inactive | Activity (IMR-32 [5]): Active | Activity (IMR-32 [3]): Active | Activity (IMR-32 [6]): Active | Activity (A549): inactive | Activity (HepG2): inactive | Activity (IMR-32 [7]): Active | IC50 (IMR-32 [2]): > 100 µM | Activity (IMR-32 [8]): Dose-dependent effect | Activity (DU-145): inactive

O[C@@H]1[C@@H]2c3cc(Br)ccc3N[C@H](c3ccccc3)[C@@H]2C[C@@H]1O
Activity (MCF7): inactive | Activity (A549): inactive | Activity (IMR-32 [1]): inactive | Activity (HepG2): inactive | IC50 (IMR-32 [2]): > 100 µM | Activity (DU-145): inactive

CC(=O)N1c2cc([N+](=O)[O-])ccc2[C@H]2C=CC[C@H]2[C@H]1c1ccccc1
Activity (IMR-32 [4]): Active | Activity (MCF7): inactive | Activity (IMR-32 [5]): Active | Activity (IMR-32 [6]): Active | Activity (A549): inactive | Activity (IMR-32 [1]): Active | Activity (HepG2): inactive | Activity (IMR-32 [7]): Active | IC50 (IMR-32 [2]): > 100 µM | Activity (IMR-32 [8]): Dose-dependent effect | Activity (DU-145): inactive

O=[N+]([O-])c1ccc2c(c1)N[C@H](c1ccccc1)[C@@H]1C[C@H](O)[C@H](O)[C@H]21
Activity (MCF7): inactive | Activity (A549): inactive | Activity (IMR-32 [1]): inactive | Activity (HepG2): inactive | IC50 (IMR-32 [2]): 57.1 µM | Activity (DU-145): inactive

C=CCO[C@H]1C(n2cc(-c3ccccc3)nn2)C[C@@H]2[C@H]1c1ccccc1N(C(C)=O)[C@@H]2c1ccccc1 (single isomer, unassigned)
Activity (MCF7): inactive | Activity (A549): inactive | Activity (IMR-32 [1]): inactive | Activity (HepG2): inactive | IC50 (IMR-32 [2]): 65 µM | Activity (DU-145): inactive

CC(=O)N1c2ccccc2[C@@H]2[C@@H](C[C@@H]3O[C@H]23)[C@H]1c1ccc(Cl)cc1
Activity (MCF7): inactive | Activity (A549): inactive | Activity (IMR-32 [1]): inactive | Activity (HepG2): inactive | IC50 (IMR-32 [2]): > 100 µM | Activity (DU-145): inactive

CC(=O)N1c2ccccc2[C@H]2C=CC[C@H]2[C@H]1c1cccc(Br)c1
Activity (MCF7): inactive | Activity (A549): inactive | Activity (IMR-32 [1]): inactive | Activity (HepG2): inactive | IC50 (IMR-32 [2]): > 100 µM | Activity (DU-145): inactive

CC(=O)N1c2ccccc2[C@@H]2[C@@H](C[C@@H]3O[C@H]23)[C@H]1c1cccc(Br)c1
Activity (MCF7): inactive | Activity (A549): inactive | Activity (IMR-32 [1]): inactive | Activity (HepG2): inactive | IC50 (IMR-32 [2]): > 100 µM | Activity (DU-145): inactive

CC(=O)N1c2ccccc2[C@H]2[C@@H](O)[C@H](N=[N+]=[N-])C[C@H]2[C@H]1c1cccc(Br)c1
Activity (MCF7): inactive | Activity (A549): inactive | Activity (IMR-32 [1]): inactive | Activity (HepG2): inactive | IC50 (IMR-32 [2]): > 100 µM | Activity (DU-145): inactive

Cc1ccccc1[C@H]1Nc2ccccc2[C@H]2[C@@H](O)[C@@H](O)C[C@H]21
Activity (MCF7): inactive | Activity (A549): inactive | Activity (IMR-32 [1]): inactive | Activity (HepG2): inactive | IC50 (IMR-32 [2]): > 100 µM | Activity (DU-145): inactive

Fc1ccc2c(c1)N[C@H](c1ccccc1)[C@@H]1CC=C[C@H]21
Activity (MCF7): inactive | Activity (A549): inactive | Activity (IMR-32 [1]): inactive | Activity (HepG2): inactive | IC50 (IMR-32 [2]): > 100 µM | Activity (DU-145): inactive

Cc1ccccc1[C@H]1Nc2ccccc2[C@H]2C=CC[C@H]21
Activity (MCF7): inactive | Activity (A549): inactive | Activity (IMR-32 [1]): inactive | Activity (HepG2): inactive | IC50 (IMR-32 [2]): 87.2 µM | Activity (DU-145): inactive

CC(=O)N1c2ccccc2[C@H]2[C@@H](O)[C@H](N=[N+]=[N-])C[C@H]2[C@H]1c1ccc(Cl)cc1
Activity (MCF7): inactive | Activity (A549): inactive | Activity (IMR-32 [1]): inactive | Activity (HepG2): inactive | IC50 (IMR-32 [2]): > 100 µM | Activity (DU-145): inactive

CC(=O)N1c2ccccc2[C@H]2C=CC[C@H]2[C@H]1c1ccccc1C
Activity (MCF7): inactive | Activity (A549): inactive | Activity (IMR-32 [1]): inactive | Activity (HepG2): inactive | IC50 (IMR-32 [2]): > 100 µM | Activity (DU-145): inactive

C=CCO[C@@H]1[C@@H]2c3ccccc3N(C(C)=O)[C@H](c3ccc(Cl)cc3)[C@@H]2C[C@H]1N=[N+]=[N-]
Activity (MCF7): inactive | Activity (A549): inactive | Activity (IMR-32 [1]): inactive | Activity (HepG2): inactive | IC50 (IMR-32 [2]): 66.5 µM | Activity (DU-145): inactive

COc1cccc2c1C(=O)c1c(O)c3c(c(O)c1C2=O)C[C@@](O)(C(=O)CO)C[C@@H]3O[C@H]1C[C@H](N)[C@H](O)[C@H](C)O1 [DOXORUBICIN]
IC50 (IMR-32 [2]): 8.49 µM

O[C@@H]1[C@@H]2c3ccccc3N[C@H](c3ccc(Cl)cc3)[C@@H]2C[C@@H]1O
Activity (MCF7): inactive | Activity (A549): inactive | Activity (IMR-32 [1]): inactive | Activity (HepG2): inactive | IC50 (IMR-32 [2]): 64.6 µM | Activity (DU-145): inactive

O=[N+]([O-])c1ccc2c(c1)N[C@H](c1ccccc1)[C@@H]1CC=C[C@H]21
Activity (MCF7): inactive | Activity (A549): inactive | Activity (IMR-32 [1]): inactive | Activity (HepG2): inactive | IC50 (IMR-32 [2]): > 100 µM | Activity (DU-145): inactive
